Reference: patent US5776914A, “Prevention of hemolysis” (The Trustees of the University of Pennsylvania, priority 1994, dated 1998)
Converted amounts (≈) assume the structure as drawn. One block for each compound: values may come before it.

What was measured:
erythrocytes [1] = settings: cited from earlier work; for hemolytic activity (in words): known in the art / literature; for concentration above/at which hemolysis is induced: background statement
erythrocytes [2] = test: inhibition of hemolysis induced by hemolytic agents (CPZ, CD, Pr-OH-CD, clay); settings: for Hemolysis: 15 min
Description: Unless explicitly stated otherwise, hemolytic activity was measured by the procedure described by I. Jodal et al., Proceedings of the Fourth International Symposium on Cyclodextrins, O. Huber and J. Szejtli, Eds., 421-425, Kluwer Academic Publishers, Boston (1988), which is incorporated herein by reference.
For each of the examples which follow, sodium citrate was added about (to about 0.47%) to fresh human blood collected from healthy laboratory personnel. After centrifugation (10 min., 400×G) to separate the erythrocytes from other blood components, the supernatant erythrocyte fraction was recentrifuged and washed twice with isotonic phosphate buffer. The erythrocytes were diluted with that buffer to a 10% hematocrit value to obtain an erythrocyte suspension. Test material and erythrocytes were mixed as follows: about 3.6, 1.8, and 0.9 ml of a test material solution was mixed with about 0.4, 0.2 and 0.1 ml, respectively, of erythrocyte suspension and then incubated for about 15 minutes each at about 37° C., followed by two centrifugations for two minutes each at about 4000×G The resulting supernatants were measured for absorbance at 543 nm using a Gilford spectrophotometer. The percent of hemolysis was determined by reference to two control samples. The first sample contained erythrocytes and isotonic saline. This first sample served as a zero blank. The second sample was identical to the first but had been sonicated to provide a value for 100% hemolysis.

erythrocytes [3] = assay type: cell-based, human
Description: FIG. 2 graphically illustrates the hemolytic effects of two hydroxyalkyl substituted cyclodextrins, 2-hydroxyethyl-β-cyclodextrin (β-CD-4-Et) and 2-hydroxypropyl-β-cyclodextrin (β-CD-4Pr) in comparison to the polyanionically substituted cyclodextrin β-cyclodextrin-tetradecasulfate sodium (β-CD-14s) on fresh human blood to which about 0.47% sodium citrate was added.
The first sample contained erythrocytes and isotonic saline. This first sample served as a zero blank.

in vitro = assay type: cell-based, human; settings: human, erythrocytes
erythrocytes [4] = test: in vitro; assay type: cell-based, human
solubility limit = assay type: physicochemical; settings: 20° C.
erythrocytes [5] = settings: 1.0 mM β-cyclodextrin, simultaneous use (Uekama 1981); cited from earlier work

Compound: CC(C(=O)O)c1ccc(-c2ccccc2)c(F)c1 (stereo not shown) [flurbiprofen]
hemolytic activity (in words) (erythrocytes [1]): hemolysis inducing agents

Compound: β-cyclodextrin-tetradecasulfate sodium [β-CD-14s]
reduction of the level of hemolysis (erythrocytes [2]; CD about 15 mg/ml, β-CD-14s 50 mg/ml): about 41% | fold reduction of hemolysis (erythrocytes [2]; CD about 15 mg/ml, β-CD-14s 150 mg/ml): about 30 fold | hemolytic activity of the composition with CPZ (in words) (erythrocytes [2]; Example 23: CPZ 1.0 mg/ml + 50 mg/ml CDS): substantially reduced hemolytic activity | hemolytic effect (in words) (erythrocytes [2]; about 70 mg/ml CDS, about 2.0 mg/ml CPZ): negligible hemolytic effect | fold improvement, that is, reduction in hemolysis (erythrocytes [2]; hydroxypropyl cyclodextrin 75 mg/ml, β-CD-14s 100 mg/ml): at least 20 fold | hemolytic effect (FIG. 2) (erythrocytes [3]): no undesirable hemolytic properties

Compound: CN(C)CCCN1c2ccccc2Sc2ccc(Cl)cc21 [CPZ, chloropromazine]
concentration above/at which hemolysis is induced (erythrocytes [1]): > 500 µM | hemolytic activity (in words) (erythrocytes [1]): hemolysis inducing agents | hemolysis at 0.25 h (in vitro; 0.5 mg/ml of CPZ): ~100% | hemolysis at 0.25 h (in vitro; CPZ 0.15 mg/ml (Example 1)): 4.9% | hemolysis at 0.25 h (in vitro; CPZ 0.25 mg/ml (Example 2)): 7% | hemolysis at 0.25 h (in vitro; CPZ 0.30 mg/ml (Example 3)): 88% | hemolysis at 0.25 h (in vitro; CPZ 0.40 mg/ml (Example 4)): 96% | hemolysis (in words) (erythrocytes [4]; concentrations approaching 0.5 mg/ml of CPZ): complete hemolysis | hemolysis (in words) (erythrocytes [4]; without CDS, about one-fifth of 2.0 mg/ml CPZ (Example 4)): substantially complete hemolysis

Compound: C=C[C@]1(C)C[C@@H](OC(=O)CSCCN(CC)CC)[C@]2(C)[C@H](C)CC[C@]3(CCC(=O)[C@H]32)[C@@H](C)[C@@H]1O [tiamulin]
hemolytic activity (in words) (erythrocytes [1]): hemolysis inducing agents

solubility (solubility limit): 13 to 18 mg/mL (≈ 11.5 to 15.9 mM)
Compound: OC[C@H]1O[C@@H]2O[C@H]3[C@H](O)[C@@H](O)[C@@H](O[C@H]4[C@H](O)[C@@H](O)[C@@H](O[C@H]5[C@H](O)[C@@H](O)[C@@H](O[C@H]6[C@H](O)[C@@H](O)[C@@H](O[C@H]7[C@H](O)[C@@H](O)[C@@H](O[C@H]8[C@H](O)[C@@H](O)[C@@H](O[C@H]1[C@H](O)[C@H]2O)O[C@@H]8CO)O[C@@H]7CO)O[C@@H]6CO)O[C@@H]5CO)O[C@@H]4CO)O[C@@H]3CO [β-CD, β-cyclodextrin]
Hemolysis (erythrocytes [2]; CPZ 0.5 mg/ml (1.5 mM) + CD 5.0 mg/ml (4.0 mM), molar ratio CD/CPZ 2.7 (Example 20)): 6.5 | Hemolysis (erythrocytes [2]; CPZ 0.75 mg/ml (2.25 mM) + CD 7.5 mg/ml (6.0 mM), molar ratio CD/CPZ 2.7 (Example 21)): 21 | Hemolysis (erythrocytes [2]; CPZ 1.0 mg/ml (3.0 mM) + CD 10 mg/ml (8.0 mM), molar ratio CD/CPZ 2.7 (Example 22)): 80 | protection from hemolysis by CPZ (in words) (erythrocytes [2]; Example 20: CPZ 0.5 mg/ml + CD 5.0 mg/ml): considerable protection | protection from hemolysis by CPZ (in words) (erythrocytes [2]; Examples 21 and 22: CPZ 0.75-1.0 mg/ml + CD 7.5-10 mg/ml): protection is lost | onset of hemolysis (concentration inducing hemolysis) (erythrocytes [3]; human): about 6 mg/ml | concentration above/at which hemolysis is induced (erythrocytes [1]): 2000 to 3000 µM | inhibition of hemolytic action of chlorpromazine (erythrocytes [5]): inhibits the hemolytic action

Compound: 2-hydroxyethyl-β-cyclodextrin [β-CD-4-Et]
hemolytic effect (FIG. 2) (erythrocytes [3]): induced hemolysis at low concentrations

Compound: 2-hydroxypropyl-β-cyclodextrin [β-CD-4Pr]
hemolytic effect (FIG. 2) (erythrocytes [3]): induced hemolysis at low concentrations
